The IC50 is the concentration at which inhibition is half-maximal.

T1 sequence (P56817 22-460): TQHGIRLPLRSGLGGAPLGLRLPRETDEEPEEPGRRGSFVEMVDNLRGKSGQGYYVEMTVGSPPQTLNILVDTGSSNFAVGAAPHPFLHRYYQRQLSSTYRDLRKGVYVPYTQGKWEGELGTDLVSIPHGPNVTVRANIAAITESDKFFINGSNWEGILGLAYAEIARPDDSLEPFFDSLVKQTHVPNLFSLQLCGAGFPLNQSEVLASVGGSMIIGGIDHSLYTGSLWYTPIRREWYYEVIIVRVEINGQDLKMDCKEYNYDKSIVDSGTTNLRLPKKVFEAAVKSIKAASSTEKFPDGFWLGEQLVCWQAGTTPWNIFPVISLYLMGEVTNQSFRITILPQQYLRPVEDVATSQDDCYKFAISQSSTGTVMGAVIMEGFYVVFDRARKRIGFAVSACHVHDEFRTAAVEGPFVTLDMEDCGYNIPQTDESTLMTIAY

The first assay has as its target T1, human β-Secretase (soluble part, AA1-AA460; sBACE-Fc) (Homo sapiens, UniProt P56817).
T1 construct: The soluble part of the human β-Secretase (AA1-AA460) was cloned into the ASP2-Fc10-1-IRES-GFP-neoK mammalian expression vector; made in house
The experiment in a line: TR-FRET assay. It counts as biochemical. The conditions noted are these: IC50 (nM) in TR-FRET assay, substrate (Europium)CEVNLDAEFK(Qsy7) 100 nM, pH 4.5, 15 min at RT. The method, then: The enzyme used in the IGEN Cleavage-, Fluorescent-, TR-FRET- and BiaCore assays is described as follows:
The soluble part of the human β-Secretase (AA1-AA460) was cloned into the ASP2-Fc10-1-IRES-GFP-neoK mammalian expression vector. The gene was fused to the Fc domain of IgG1 (affinity tag) and stably cloned into HEK 293 cells. Purified sBACE-Fc is stored in Tris buffer, pH 9.2 and has a purity of 95%.
Enzyme was diluted to 6 μg/mL and the substrate (Europium)[…](Qsy7) to 200 nM in reaction buffer (NaAcetate, chaps, triton x-100, EDTA pH 4.5). Compounds were diluted to the desired concentration in dimethyl sulfoxide (final dimethyl sulfoxide concentration in assay is 5%). […] Enzyme (9 μL) and 1 μL of compound in dimethyl sulfoxide was added to the plate, mixed and pre-incubated for 10 min. Substrate (10 μL) was added and the reaction proceeded in the dark for 15 min at RT. The reaction was stopped with the addition of 7 μL NaAcetate, pH 9. The fluorescence of the product was measured on a Victor II plate reader with an excitation wavelength of 340 nm and an emission wavelength of 615 nm. […] The dimethyl sulfoxide control defined the 100% activity level and 0% activity was defined by exclusion of the enzyme (using reaction buffer instead).
In turn, `COc1cc(Cl)cc(-c2cc(C3(c4cccc(OS(=O)(=O)C(C)C)c4)N=C(N)N(C)C3=O)ccc2F)c1` (stereo not drawn) [Example 107, 3-[2-Amino-4-(3′-chloro-6-fluoro-5′-methoxybiphenyl-3-yl)-1-methyl-5-oxo-4,5-dihydro-1H-imidazol-4-yl]phenyl propane-2-sulfonate] registered an IC50 of 311 nM.

Staying with this assay, now noted: substrate (Europium)CEVNLDAEFK(Qsy7) 100 nM, pH 4.5, 15 min at RT; read-out: IC50 (nM) in TR-FRET assay.
Take `CN1C(=O)C(c2cccc(OS(C)(=O)=O)c2)(c2ccc(F)c(-c3cccnc3F)c2)N=C1N` (stereo not drawn) [Example 88, 3-{2-Amino-4-[4-fluoro-3-(2-fluoropyridin-3-yl)phenyl]-1-methyl-5-oxo-4,5-dihydro-1H-imidazol-4-yl}phenylmethanesulfonate]: the IC50 came out at 234 nM.

Take `CN1C(=O)C(c2cccc(OS(C)(=O)=O)c2)(c2ccc(F)c(-c3cc(Cl)cc(Cl)c3)c2)N=C1N` (stereo not drawn) [Example 89, 3-[2-Amino-4-(3′,5′-dichloro-6-fluorobiphenyl-3-yl)-1-methyl-5-oxo-4,5-dihydro-1H-imidazol-4-yl]phenyl methanesulfonate]: the IC50 amounted to 207 nM.

As for `CN1C(=O)C(c2cccc(OS(C)(=O)=O)c2)(c2ccc(F)c(-c3cccnc3)c2)N=C1N` (stereo not drawn) [Example 90, 3-[2-Amino-4-(4-fluoro-3-pyridin-3-ylphenyl)-1-methyl-5-oxo-4,5-dihydro-1H-imidazol-4-yl]phenylmethanesulfonate], the IC50 came out at 385 nM.

As for `CN1C(=O)C(c2cccc(OS(C)(=O)=O)c2)(c2ccc(F)c(-c3cccc(Cl)c3)c2)N=C1N` (stereo not drawn) [Example 91, 3-[2-Amino-4-(3′-chloro-6-fluorobiphenyl-3-yl)-1-methyl-5-oxo-4,5-dihydro-1H-imidazol-4-yl]phenyl methanesulfonate], the IC50 came out at 228 nM.

Regarding `COc1cc(Cl)cc(-c2cc(C3(c4cccc(OS(C)(=O)=O)c4)N=C(N)N(C)C3=O)ccc2F)c1` (stereo not drawn) [Example 92, 3-[2-Amino-4-(3′-chloro-6-fluoro-5′-methoxybiphenyl-3-yl)-1-methyl-5-oxo-4,5-dihydro-1H-imidazol-4-yl]phenyl methanesulfonate], the IC50 came out at 179 nM.

As for `COc1cccc(-c2cc(C3(c4cccc(OS(C)(=O)=O)c4)N=C(N)N(C)C3=O)ccc2F)c1` (stereo not drawn) [Example 93, 3-[2-Amino-4-(6-fluoro-3′-methoxybiphenyl-3-yl)-1-methyl-5-oxo-4,5-dihydro-1H-imidazol-4-yl]phenyl methanesulfonate], the 50% inhibitory concentration (IC50) stood at 146 nM.

In the case of `CN1C(=O)C(c2cccc(OS(C)(=O)=O)c2)(c2ccc(F)c(-c3cncnc3)c2)N=C1N` (stereo not drawn) [Example 94, 3-[2-Amino-4-(4-fluoro-3-pyrimidin-5-ylphenyl)-1-methyl-5-oxo-4,5-dihydro-1H-imidazol-4-yl]phenyl methanesulfonate], the IC50 is 472 nM.

Regarding `CCCS(=O)(=O)Oc1cccc(C2(c3ccc(F)c(-c4cc(Cl)cnc4F)c3)N=C(N)N(C)C2=O)c1` (stereo not drawn) [Example 95, 3-{2-Amino-4-[3-(5-chloro-2-fluoropyridin-3-yl)-4-fluorophenyl]-1-methyl-5-oxo-4,5-dihydro-1H-imidazol-4-yl}phenyl propane-1-sulfonate], the 50% inhibitory concentration (IC50) was 352 nM.

As to `CCCS(=O)(=O)Oc1cccc(C2(c3ccc(F)c(-c4cccnc4F)c3)N=C(N)N(C)C2=O)c1` (stereo not drawn) [Example 96, 3-{2-Amino-4-[4-fluoro-3-(2-fluoropyridin-3-yl)phenyl]-1-methyl-5-oxo-4,5-dihydro-1H-imidazol-4-yl}phenyl propane-1-sulfonate], the half-inhibitory concentration (IC50) was 242 nM.

As to `CCCS(=O)(=O)Oc1cccc(C2(c3ccc(F)c(-c4cccnc4)c3)N=C(N)N(C)C2=O)c1` (stereo not drawn) [Example 97, 3-[2-Amino-4-(4-fluoro-3-pyridin-3-ylphenyl)-1-methyl-5-oxo-4,5-dihydro-1H-imidazol-4-yl]phenylpropane-1-sulfonate], the IC50 was determined as 236 nM.

With `CCCS(=O)(=O)Oc1cccc(C2(c3ccc(F)c(-c4cccc(Cl)c4)c3)N=C(N)N(C)C2=O)c1` (stereo not drawn) [Example 98, 3-[2-Amino-4-(3′-chloro-6-fluorobiphenyl-3-yl)-1-methyl-5-oxo-4,5-dihydro-1H-imidazol-4-yl]phenyl propane-1-sulfonate], the 50% inhibitory concentration (IC50) was 239 nM.

As for `CCCS(=O)(=O)Oc1cccc(C2(c3ccc(F)c(-c4cc(Cl)cc(OC)c4)c3)N=C(N)N(C)C2=O)c1` (stereo not drawn) [Example 99, 3-[2-Amino-4-(3′-chloro-6-fluoro-5′-methoxybiphenyl-3-yl)-1-methyl-5-oxo-4,5-dihydro-1H-imidazol-4-yl]phenyl propane-1-sulfonate], the IC50 was determined as 330 nM.

`CCCS(=O)(=O)Oc1cccc(C2(c3ccc(F)c(-c4cc(Cl)cc(Cl)c4)c3)N=C(N)N(C)C2=O)c1` (stereo not drawn) [Example 100, 3-[2-Amino-4-(3′,5′-dichloro-6-fluorobiphenyl-3-yl)-1-methyl-5-oxo-4,5-dihydro-1H-imidazol-4-yl]phenyl propane-1-sulfonate]: the IC50 turned out to be 395 nM.

As to `CCCS(=O)(=O)Oc1cccc(C2(c3ccc(F)c(-c4cccc(OC)c4)c3)N=C(N)N(C)C2=O)c1` (stereo not drawn) [Example 101, 3-[2-Amino-4-(6-fluoro-3′-methoxybiphenyl-3-yl)-1-methyl-5-oxo-4,5-dihydro-1H-imidazol-4-yl]phenyl propane-1-sulfonate], the concentration for half-maximal inhibition (IC50) was determined as 180 nM.

For `CCCS(=O)(=O)Oc1cccc(C2(c3ccc(F)c(-c4cncnc4)c3)N=C(N)N(C)C2=O)c1` (stereo not drawn) [Example 102, 3-[2-Amino-4-(4-fluoro-3-pyrimidin-5-ylphenyl)-1-methyl-5-oxo-4,5-dihydro-1H-imidazol-4-yl]phenyl propane-1-sulfonate], the 50% inhibitory concentration (IC50) is 321 nM.

With `CC(C)S(=O)(=O)Oc1cccc(C2(c3ccc(F)c(-c4cc(Cl)cnc4F)c3)N=C(N)N(C)C2=O)c1` (stereo not drawn) [Example 103, 3-{2-Amino-4-[3-(5-chloro-2-fluoropyridin-3-yl)-4-fluorophenyl]-1-methyl-5-oxo-4,5-dihydro-1H-imidazol-4-yl}phenyl propane-2-sulfonate], the IC50 was 227 nM.

Consider `CC(C)S(=O)(=O)Oc1cccc(C2(c3ccc(F)c(-c4cccnc4F)c3)N=C(N)N(C)C2=O)c1` (stereo not drawn) [Example 104, 3-{2-Amino-4-[4-fluoro-3-(2-fluoropyridin-3-yl)phenyl]-1-methyl-5-oxo-4,5-dihydro-1H-imidazol-4-yl}phenyl propane-2-sulfonate], for which the IC50 was found to be 186 nM.

As for `CC(C)S(=O)(=O)Oc1cccc(C2(c3ccc(F)c(-c4cccnc4)c3)N=C(N)N(C)C2=O)c1` (stereo not drawn) [Example 105, 3-[2-Amino-4-(4-fluoro-3-pyridin-3-ylphenyl)-1-methyl-5-oxo-4,5-dihydro-1H-imidazol-4-yl]phenylpropane-2-sulfonate], the IC50 stood at 343 nM.

As for `CC(C)S(=O)(=O)Oc1cccc(C2(c3ccc(F)c(-c4cccc(Cl)c4)c3)N=C(N)N(C)C2=O)c1` (stereo not drawn) [Example 106, 3-[2-Amino-4-(3′-chloro-6-fluorobiphenyl-3-yl)-1-methyl-5-oxo-4,5-dihydro-1H-imidazol-4-yl]phenyl propane-2-sulfonate], the concentration for half-maximal inhibition (IC50) was 363 nM.

Regarding `COc1cccc(-c2cc(C3(c4cccc(OS(=O)(=O)C(C)C)c4)N=C(N)N(C)C3=O)ccc2F)c1` (stereo not drawn) [Example 108, 3-[2-Amino-4-(6-fluoro-3′-methoxybiphenyl-3-yl)-1-methyl-5-oxo-4,5-dihydro-1H-imidazol-4-yl]phenyl propane-2-sulfonate], the concentration for half-maximal inhibition (IC50) came out at 186 nM.

(Values after patent US20080176862A1, “New Compounds 617” (ASTRAZENECA AB, priority 2006, published 2008).)
